Measured values as given in patent US8759366B2, “Aminopyrimidines as SYK inhibitors” (Merck Sharp & Dohme Corp., priority 2009, dated 2014).

Biological target: rhSYK (Homo sapiens (Human), UniProt P43405)
Conditions: read-out: rhSYK activity

SMILES | IC50
CC(C)N1CCC(O)(c2ncc(-c3cccc(Nc4nccc(C(F)(F)F)n4)c3)s2)CC1 [4D-5] | 100 to 1000 nM
OC1(c2ncc(-c3cc(Nc4nccc(C(F)(F)F)n4)cc(C(F)(F)F)c3)s2)CCC1 [Example 2, 1-{5-[3-(trifluoromethyl)-5-{[4-(trifluoromethyl)pyrimidin-2-yl]amino}phenyl]-1,3-thiazol-2-yl}cyclobutanol] | 100 to 1000 nM
CCOC(=O)C1CC=C(c2ncc(-c3cc(C)cc(Nc4nccc(C(F)(F)F)n4)c3)s2)CC1 (stereo not shown) [Example 34, ethyl 4-[5-(3-methyl-5-{[4-(trifluoromethyl)pyrimidin-2-yl]amino}phenyl)-1,3-thiazol-2-yl]cyclohex-3-ene-1-carboxylate] | 100 to 1000 nM
Cc1cc(Nc2nccc(C(F)(F)F)n2)cc(-c2cnc(C(C)(O)c3ccc(CC(=O)O)cc3)s2)c1 (single isomer, unassigned) [Example 4A-59] | 100 to 1000 nM
CC1(C)C(O)C(C)(C)C1(O)c1ncc(-c2cccc(Nc3nccc(C(F)(F)F)n3)c2)s1 (stereo not shown) [Example 6-10] | 100 to 1000 nM
Cc1cc(Nc2ncc(Cl)cn2)cc(-c2cncs2)c1 [Intermediate 48, 5-Chloro-N-[3-methyl-5-(1,3-thiazol-5-yl)phenyl]pyrimidin-2-amine] | 100 to 1000 nM
Cc1cc(Nc2nccc(C(F)(F)F)n2)cc(-c2cnc(C3(O)CCN(c4ccccc4C)CC3)s2)c1 [4D-9] | 100 to 1000 nM
Cc1cc(Nc2nccc(C(F)(F)F)n2)cc(-c2cnc(C3(O)CCN(c4ccccc4F)CC3)s2)c1 [4D-11] | 100 to 1000 nM
Cc1cc(Nc2nccc(C(F)(F)F)n2)cc(-c2cnc(C3(O)CCN(c4cccc(F)c4)CC3)s2)c1 [4D-10] | 100 to 1000 nM
CCc1cc(Nc2nccc(C(F)(F)F)n2)cc(-c2cnc(C(C)(C)O)s2)c1 [Example 30, 2-[5-(3-ethyl-5-{[4-(trifluoromethyl)pyrimidin-2-yl]amino}phenyl)-1,3-thiazol-2-yl]propan-2-ol] | < 100 nM
FC(F)(F)c1ccnc(Nc2cccc(-c3cncs3)c2)n1 [Intermediate 7, N-[3-(1,3-thiazol-5-yl)phenyl]-4-(trifluoromethyl)pyrimidin-2-amine] | 100 to 1000 nM
Cc1cc(Nc2nccc(C(F)(F)F)n2)cc(-c2cnc(C3(O)CCC4(CCC(=O)N4)CC3)s2)c1 (stereo not shown) [Example 4B-24] | < 100 nM
CSc1ccc(C(C)(O)c2ncc(-c3cc(C)cc(Nc4nccc(C(F)(F)F)n4)c3)s2)cc1 (stereo not shown) [Example 4A-57, 1-[4-(methylsulfanyl)phenyl]-1-[5-(3-methyl-5-{[4-(trifluoromethyl)pyrimidin-2-yl]amino}phenyl)-1,3-thiazol-2-yl]ethanol] | 100 to 1000 nM
Cc1cc(Nc2nccc(C(F)(F)F)n2)cc(-c2cnc(C3(O)CCN(C4CC4)CC3)s2)c1 [4D-8] | < 100 nM
COC(=O)NS(=O)(=O)N1CCC(O)(c2ncc(-c3cc(C)cc(Nc4nccc(OC)n4)c3)s2)CC1 [54(1), Methyl {[4-hydroxy-4-(5-{3-[(4-methoxypyrimidin-2-yl)amino]-5-methylphenyl}-1,3-thiazol-2-yl)piperidin-1-yl]sulfonyl}carbamate] | < 100 nM
COc1nc(Nc2cc(C)cc(-c3cnc(C(C)(O)CO)s3)c2)ncc1Cl (stereo not shown) [Ex 5-19] | < 100 nM
O=C(Nc1cc(Nc2nccc(C(F)(F)F)n2)cc(-c2cnc(C3(O)CCC3)s2)c1)NC1CCCC1 [Example 19, 1-cyclopentyl-3-(3-[2-(1-hydroxycyclobutyl)-1,3-thiazol-5-yl]-5-{[4-(trifluoromethyl)pyrimidin-2-yl]amino}phenyl)urea] | < 100 nM
CC(=O)Nc1cc(Nc2nccc(C(F)(F)F)n2)cc(-c2cnc(C3(O)CCC3)s2)c1 [Example 16, N-(3-[2-(1-hydroxycyclobutyl)-1,3-thiazol-5-yl]-5-{[4-(trifluoromethyl)pyrimidin-2-yl]amino}phenyl)acetamide] | < 100 nM
Cc1cc(Nc2nccc(C(F)(F)F)n2)cc(-c2cnc(C3(O)CCC(C4(N)CC4)CC3)s2)c1 (stereo not shown) [Example 4C-19] | < 100 nM
CC(=O)NC12CC3CC(C1)C(O)(c1ncc(-c4cc(C)cc(Nc5nccc(C(F)(F)F)n5)c4)s1)C(C3)C2 (stereo not shown) [Example 4B-51] | < 100 nM
Cc1cc(Nc2nccc(C(F)(F)F)n2)cc(-c2cnc([C@]3(F)CC[C@@H](C(=O)O)CC3)s2)c1 [Example 26, cis-4-Fluoro-4-[5-(3-methyl-5-{[4-(trifluoromethyl)pyrimidin-2-yl]amino}phenyl)-1,3-thiazol-2-yl]cyclohexanecarboxylic acid] | < 100 nM
COc1ccnc(Nc2cc(C)cc(-c3cnc(C4(Cl)CCN(S(N)(=O)=O)CC4)s3)c2)n1 [54(2), 4-Chloro-4-(5-{3-[(4-methoxypyrimidin-2-yl)amino]-5-methylphenyl}-1,3-thiazol-2-yl)-piperidine-1-sulfonamide] | < 100 nM
CC(=O)NS(=O)(=O)C1(c2ncc(-c3cc(C)cc(Nc4nccc(C(F)(F)F)n4)c3)s2)CCC1 [Example 74, N-({1-[5-(3-methyl-5-{[4-(trifluoromethyl)pyrimidin-2-yl]amino}phenyl)-1,3-thiazol-2-yl]-cyclobutyl}sulfonyl)acetamide] | < 100 nM

Now from value to molecule:

IC50 | SMILES
< 100 nM | Cc1cc(Nc2nccc(C(F)(F)F)n2)cc(-c2cnc(C3(O)CN(C(C)(C)C(=O)OC(C)(C)C(=O)O)C3)s2)c1 [Example 53(2), 2-[(2-{3-Hydroxy-3-[5-(3-methyl-5-{[4-(trifluoromethyl)pyrimidin-2-yl]amino}phenyl)-1,3-thiazol-2-yl]azetidin-1-yl}-2-methylpropanoyl)oxy]-2-methylpropanoic acid]
< 100 nM | Cc1cc(Nc2nccc(C(F)(F)F)n2)cc(-c2cnc(C3(O)CCNC(=O)CC3)s2)c1 (stereo not shown) [Example 10, 5-Hydroxy-5-[5-(3-methyl-5-{[4-(trifluoromethyl)pyrimidin-2-yl]amino}phenyl)-1,3-thiazol-2-yl]azepan-2-one]
< 100 nM | Cn1ccc(C(C)(O)c2ncc(-c3cccc(Nc4nccc(C(F)(F)F)n4)c3)s2)c1 (stereo not shown) [Example 4A-16]
< 100 nM | Cc1cc(Nc2nccc(C(F)(F)F)n2)cc(-c2cnc(C3(O)C[C@H]4CC(CC(=O)O)C[C@H]4C3)s2)c1 (stereo partly shown) [Example 4B-27]
< 100 nM | Cc1cc(Nc2nccc(C(F)(F)F)n2)cc(-c2cnc(C3(O)CCC(CCN)CC3)s2)c1 (stereo not shown) [Example 4C-5]
< 100 nM | CC(O)(CO)c1ncc(-c2cc(F)cc(Nc3ncc(F)c(C4CC4)n3)c2)s1 (stereo not shown) [Example 57, 2-(5-{3-[(4-cyclopropyl-5-fluoropyrimidin-2-yl)amino]-5-fluorophenyl}-1,3-thiazol-2-yl)propane-1,2-diol]
< 100 nM | Cc1cc(Nc2nccc(C(F)(F)F)n2)cc(-c2cnc(C3(O)CCC4(C)C(=O)CCC4(O)C3)s2)c1 (stereo not shown) [Example 4B-26]
< 100 nM | OC1(c2ncc(-c3cccc(Nc4nccc(C(F)(F)F)n4)c3)s2)COC1 [Example 4B-11]
< 100 nM | Cc1cc(Nc2nccc(C(F)(F)F)n2)cc(-c2cnc(C(NC(=O)NC(N)=O)(C3CC3)C3CC3)s2)c1 [Example 65, N-{dicyclopropyl[5-(3-methyl-5-{[4-(trifluoromethyl)pyrimidin-2-yl]amino}phenyl)-1,3-thiazol-2-yl]methyl}dicarbonimidic diamide]
< 100 nM | Cc1cc(Nc2nccc(C)n2)cc(-c2cnc(C3(O)CCC(CO)CC3)s2)c1 (stereo not shown) [Example 4C-9]
< 100 nM | CC(C)(CO)c1ncc(-c2cccc(Nc3nccc(C(F)(F)F)n3)c2)s1 [Example 21, 2-methyl-2-[5-(3-{[4-(trifluoromethyl)pyrimidin-2-yl]amino}phenyl)-1,3-thiazol-2-yl]propan-1-ol]
< 100 nM | Cc1cc(Nc2nccc(C(F)(F)F)n2)cc(-c2cnc(C3(O)CCC(N)(C(=O)O)CC3)s2)c1 (stereo not shown) [Example 41, 1-amino-4-hydroxy-4-[5-(3-methyl-5-{[4-(trifluoromethyl)pyrimidin-2-yl]amino}phenyl)-1,3-thiazol-2-yl]cyclohexanecarboxylic acid]
< 100 nM | Cc1cc(Nc2nccc(C(F)(F)F)n2)cc(-c2cnc(C3(O)CCNCC3)s2)c1 [Example 46, 4-[5-(3-methyl-5-{[4-(trifluoromethyl)pyrimidin-2-yl]amino}phenyl)-1,3-thiazol-2-yl]piperidin-4-ol]
< 100 nM | Cc1cc(Nc2nccc(C(=O)N3CCNCC3)n2)cc(-c2cnc(C(C)(O)C(F)(F)F)s2)c1 (stereo not shown) [Example 69, [2-({3-methyl-5-[2-(1,1,1-trifluoro-2-hydroxypropan-2-yl)-1,3-thiazol-5-yl]phenyl}amino)-pyrimidin-4-yl](piperazin-1-yl)methanone]
< 100 nM | Cc1cc(Nc2nccc(C(F)(F)F)n2)cc(-c2cnc(C3(NC(N)=O)CCC3)s2)c1 [Example 64, 1-{1-[5-(3-methyl-5-{[4-(trifluoromethyl)pyrimidin-2-yl]amino}phenyl)-1,3-thiazol-2-yl]cyclobutyl}urea]
< 100 nM | Cc1cc(Nc2nccc(C(F)(F)F)n2)cc(-c2cnc([C@]3(O)CC[C@@H](c4n[nH]c(=O)o4)CC3)s2)c1 [Example 55, 5-{cis-4-hydroxy-4-[5-(3-methyl-5-{[4-(trifluoromethyl)pyrimidin-2-yl]amino}phenyl)-1,3-thiazol-2-yl]cyclohexyl}-1,3,4-oxadiazol-2(3H)-one]
< 100 nM | Cc1cc(Nc2nccc(C(F)(F)F)n2)cc(-c2cnc(C(O)C(F)(F)F)s2)c1 (single isomer, unassigned) [Example 6-4]
< 100 nM | Cc1cc(Nc2nccc(C(F)(F)F)n2)cc(-c2cnc(C3(O)CCCC(=O)C3(C)C)s2)c1 (stereo not shown) [Example 8B-1]
< 100 nM | Cc1cc(Nc2nccc(C)n2)cc(-c2cnc(C3(O)CC4(C(=O)O)CCC3(C)C4(C)C)s2)c1 (stereo not shown) [Example 4B-32]
< 100 nM | OC1(c2ncc(-c3cccc(Nc4nccc(C(F)(F)F)n4)c3)s2)CCCCCC1 [Example 4C-1]
< 100 nM | OC1(c2ncc(-c3cccc(Nc4nccc(C(F)(F)F)n4)c3)s2)CCN(C2CC2)CC1 [4D-3]
< 100 nM | COC(=O)[C@H](C)Cc1ncc(-c2cc(C)cc(Nc3nccc(C(F)(F)F)n3)c2)s1 [Example 76, Methyl (2R)-2-methyl-3-[5-(3-methyl-5-{[4-(trifluoromethyl)pyrimidin-2-yl]amino}phenyl)-1,3-thiazol-2-yl]propanoate]
< 100 nM | Cc1cc(Nc2nccc(C(F)(F)F)n2)cc(-c2cnc(C3(C)OC(=O)CC3(C)C)s2)c1 (stereo not shown) [Example 4B-61]
